target: Recombinant human JAK1 catalytic domain (Homo sapiens (Human), UniProt P23458); assay: JAK1 inhibition assay; assay type: biochemical; conditions: semi-quantitative score
Procedure: Plates were washed 6 times with 300 μL per well of a 75 mM phosphoric acid solution and the bottom of the plates was sealed. 40 μL/well of Microscint-20 was added, the top of the plates was sealed and readout was performed using the Topcount (Perkin Elmer). Kinase activity was calculated by subtracting counts per minute (cpm) obtained in the presence of a positive control inhibitor (10 μM staurosporine) from cpm obtained in the presence of vehicle. The ability of a test compound to inhibit this activity was determined as: Percentage inhibition=((cpm determined for sample with test compound present−cpm determined for sample with positive control inhibitor) divided by (cpm determined in the presence of vehicle−cpm determined for sample with positive control inhibitor))*100%.
Dose dilution series were prepared for the compounds enabling the testing of dose-response effects in the JAK1 assay and the calculation of the IC50 for each compound.

Sequence of Recombinant human JAK1 catalytic domain (P23458 850-1154): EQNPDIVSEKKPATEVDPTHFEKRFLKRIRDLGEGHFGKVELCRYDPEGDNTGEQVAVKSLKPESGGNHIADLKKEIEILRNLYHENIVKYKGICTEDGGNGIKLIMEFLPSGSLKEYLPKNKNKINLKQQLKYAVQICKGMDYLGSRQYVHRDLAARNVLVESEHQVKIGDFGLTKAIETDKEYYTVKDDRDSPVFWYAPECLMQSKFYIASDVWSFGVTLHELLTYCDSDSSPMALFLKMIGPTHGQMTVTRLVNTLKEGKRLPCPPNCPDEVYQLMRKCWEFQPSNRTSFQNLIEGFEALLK

IC50 [nM] | SMILES
> 1000 | CN(Cc1ccccc1)C1CCN(C(=O)c2ccc(-c3cccc4nc(NC(=O)C5CC5)nn34)cc2)CC1 [Compound 103, N-(5-(4-(4-(benzyl(methyl)amino)piperidine-1-carbonyl)phenyl)-[1,2,4]triazolo[1,5-a]pyridin-2-yl)cyclopropanecarboxamide]
101 to 500 | O=C(Nc1nc2cccc(-c3ccc(C(=O)N4CCC(Oc5cccnc5)CC4)cc3)n2n1)C1CC1 [Compound 110, N-(5-(4-(4-(pyridin-3-yloxy)piperidine-1-carbonyl)phenyl)-[1,2,4]triazolo[1,5-a]pyridin-2-yl)cyclopropanecarboxamide]
> 1000 | O=C(Nc1nc2cccc(-c3ccnc(N4CCC(CCc5ccccc5)CC4)c3)n2n1)C1CC1 [Compound 112, N-(5-(2-(4-phenethylpiperidin-1-yl)pyridin-4-yl)-[1,2,4]triazolo[1,5-a]pyridin-2-yl)cyclopropanecarboxamide]
501 to 1000 | O=C(Nc1nc2cccc(-c3ccc(C(=O)N4CCC(c5nc6ccccc6[nH]5)CC4)cc3)n2n1)C1CC1 [Compound 128, N-(5-(4-(4-(1H-benzo[d]imidazol-2-yl)piperidine-1-carbonyl)phenyl)-[1,2,4]triazolo[1,5-a]pyridin-2-yl)cyclopropanecarboxamide]
> 1000 | O=C(Nc1nc2cccc(-c3ccc(N4CCOCC4)cc3)n2n1)C1CC1 [Compound 129, N-(5-(4-morpholinophenyl)-[1,2,4]triazolo[1,5-a]pyridin-2-yl)cyclopropanecarboxamide]
> 1000 | CN1CCN(Cc2ccc(-c3cccc4nc(NC(=O)C5CC5)nn34)cc2)CC1 [Compound 130, N-(5-(4-((4-methylpiperazin-1-yl)methyl)phenyl)-[1,2,4]triazolo[1,5-a]pyridin-2-yl)cyclopropanecarboxamide]
101 to 500 | COc1ccccc1C1CCN(C(=O)c2ccc(-c3cccc4nc(NC(=O)C5CC5)nn34)cc2)CC1 [Compound 131, N-(5-(4-(4-(2-methoxyphenyl)piperidine-1-carbonyl)phenyl)-[1,2,4]triazolo[1,5-a]pyridin-2-yl)cyclopropanecarboxamide]
101 to 500 | O=C(Nc1nc2cccc(-c3ccc(C(=O)N4CCC(O)(c5ccc(Cl)cc5)CC4)cc3)n2n1)C1CC1 [Compound 132]
101 to 500 | Cc1ccccc1OCC1CCN(C(=O)c2ccc(-c3cccc4nc(NC(=O)C5CC5)nn34)cc2)CC1 [Compound 133]
101 to 500 | CCCN(CC1CCCO1)C(=O)c1ccc(-c2cccc3nc(NC(=O)C4CC4)nn23)cc1 (centres unmarked) [Compound 136, 4-(2-(cyclopropanecarboxamido)-[1,2,4]triazolo[1,5-a]pyridin-5-yl)-N-propyl-N-((tetrahydrofuran-2-yl)methyl)benzamide]
101 to 500 | NC(=O)C1CCN(Cc2ccc(-c3cccc4nc(NC(=O)C5CC5)nn34)cc2)CC1 [Compound 140]
101 to 500 | CC(=O)N1CCN(Cc2ccc(-c3cccc4nc(NC(=O)C5CC5)nn34)cc2)CC1 [Compound 141, N-(5-(4-((4-acetoylpiperazin-1-yl)methyl)phenyl)-[1,2,4]triazolo[1,5-a]pyridin-2-yl)cyclopropanecarboxamide]
101 to 500 | O=C(Nc1nc2cccc(-c3ccc(CN4CCN(c5ccccn5)CC4)cc3)n2n1)C1CC1 [Compound 142, N-(5-(4-((4-(pyridin-2-yl)piperazin-1-yl)methyl)phenyl)-[1,2,4]triazolo[1,5-a]pyridin-2-yl)cyclopropanecarboxamide]
101 to 500 | O=C(Nc1nc2cccc(-c3ccc(C(=O)N4CCC(CCc5ccccc5)CC4)cc3)n2n1)C1CC1 [Compound 147]
101 to 500 | O=C(Nc1nc2cccc(-c3ccc(C(=O)N4CCC(n5nnc6ccccc65)CC4)cc3)n2n1)C1CC1 [Compound 152, N-(5-(4-(4-(1H-benzo[d][1,2,3]triazol-1-yl)piperidine-1-carbonyl)phenyl)-[1,2,4]triazolo[1,5-a]pyridin-2-yl)cyclopropanecarboxamide]

Second part, the molecule before the results:

SMILES | IC50 [nM]
O=C(Nc1nc2cccc(-c3ccc(C(=O)N4CCC(N5CCOCC5)CC4)cc3)n2n1)C1CC1 [Compound 101, N-(5-(4-(4-morpholinopiperidine-1-carbonyl)phenyl)-[1,2,4]triazolo[1,5-a]pyridin-2-yl)cyclopropanecarboxamide] | 101 to 500
CC(C)(CN1CCOCC1)NC(=O)c1ccc(-c2cccc3nc(NC(=O)C4CC4)nn23)cc1 [Compound 102, 4-(2-(cyclopropanecarboxamido)-[1,2,4]triazolo[1,5-a]pyridin-5-yl)-N-(2-methyl-1-morpholinopropan-2-yl)benzamide] | 101 to 500
COc1ccc(CCN(C)C(=O)c2ccc(-c3cccc4nc(NC(=O)C5CC5)nn34)cc2)cc1OC [Compound 105, 4-(2-(cyclopropanecarboxamido)-[1,2,4]triazolo[1,5-a]pyridin-5-yl)-N-(3,4-dimethoxyphenethyl)-N-methylbenzamide] | 101 to 500
O=C(Nc1nc2cccc(-c3ccc(OCC(=O)N4CCCCC4)cc3)n2n1)C1CC1 [Compound 117, N-(5-(4-(2-oxo-2-(piperidin-1-yl)ethoxy)phenyl)-[1,2,4]triazolo[1,5-a]pyridin-2-yl)cyclopropanecarboxamide] | > 1000
CN1CCN(Cc2ccc(COc3ccc(-c4cccc5nc(NC(=O)C6CC6)nn45)cc3)cc2)CC1 [Compound 126, N-(5-(4-(4-((4-methylpiperazin-1-yl)methyl)benzyloxy)phenyl)-[1,2,4]triazolo[1,5-a]pyridin-2-yl)cyclopropanecarboxamide] | 101 to 500
O=C(Nc1nc2cccc(-c3ccc(OCCc4cccnc4)cc3)n2n1)C1CC1 [Compound 127, N-(5-(4-(2-(pyridin-3-yl)ethoxy)phenyl)-[1,2,4]triazolo[1,5-a]pyridin-2-yl)cyclopropanecarboxamide] | 101 to 500
CC(C)N(Cc1ccc(N2CCCCC2)cc1)C(=O)c1ccc(-c2cccc3nc(NC(=O)C4CC4)nn23)cc1 [Compound 135, 4-(2-(cyclopropanecarboxamido)-[1,2,4]triazolo[1,5-a]pyridin-5-yl)-N-isopropyl-N-(4-(piperidin-1-yl)benzyl)benzamide] | 101 to 500
O=C(Nc1nc2cccc(-c3ccc(CN4CCCCC4)cc3)n2n1)C1CC1 [Compound 139, N-(5-(4-(pipcridin-1-ylmethyl)phenyl)-[1,2,4]triazolo[1,5-a]pyridin-2-yl)cyclopropanecarboxamide] | 501 to 1000
O=C(Nc1nc2cccc(-c3ccc(CN4CCN(c5ncccn5)CC4)cc3)n2n1)C1CC1 [Compound 143, N-(5-(4-((4-(pyrimidin-2-yl)piperazin-1-yl)methyl)phenyl)-[1,2,4]triazolo[1,5-a]pyridin-2-yl)cyclopropanecarboxamide] | 101 to 500
O=C(Nc1nc2cccc(-c3ccc(C(=O)N4CCC(c5noc6cc(F)ccc56)CC4)cc3)n2n1)C1CC1 [Compound 149, N-(5-(4-(4-(6-fluorobenzo[d]isoxazol-3-yl)piperidine-1-carbonyl)phenyl)-[1,2,4]triazolo[1,5-a]pyridin-2-yl)cyclopropanecarboxamide] | 101 to 500
COCC(C)N(Cc1ccc(F)cc1)C(=O)c1ccc(-c2cccc3nc(NC(=O)C4CC4)nn23)cc1 (centres unmarked) [Compound 151, 4-(2-(cyclopropanecarboxamido)-[1,2,4]triazolo[1,5-a]pyridin-5-yl)-N-(4-fluorobenzyl)-N-(1-methoxypropan-2-yl)benzamide] | 101 to 500

From US10206907B2, “Compounds useful for the treatment of degenerative and inflammatory diseases” (GALAPAGOS NV, priority 2008, dated 2019)
